# ChEMBL document CHEMBL3137667, “[Drug-induced liver injury; fourteenth updated edition of the bibliographic database of liver injuries and related drugs]” (Gastroenterol Clin Biol, 2004)
# Assays:
# [1] = human
# [2] = human; remark: listed apart in the source
# [3] = human; remark: listed apart in the source
# [4] = Times to onset, minimal and maximal, observed in the indexed observations. [column 'DELAI' in source]; conditions: human
# [5] = Highest frequency of acute liver toxicity observed during clinical trials, expressed as a percentage. [column '% AIGUE' in source]; conditions: human
# [6] = human; remark: listed apart in the source
# [7] = human; remark: listed apart in the source
# [8] = human, serum
# [9] = human; remark: listed apart in the source
# [10] = human, serum, 4383 h
# [11] = human; remark: listed apart in the source
# [12] = Highest frequency of moderate liver toxicity observed during clinical trials, expressed as a percentage. [column '% BIOL' in source]; conditions: human
# [13] = Proposed mechanism(s) of liver damage. [column 'MEC' in source]; conditions: human
# [14] = human, serum; remark: listed apart in the source
# [15] = human; remark: listed apart in the source
# [16] = human; remark: listed apart in the source
# [17] = Comments (NB not yet translated). [column 'COMMENTAIRES' in source]; conditions: human
# 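Throughout, for Hepatotoxicity (association with vascular disease): count of indexed literature references reporting vascular liver injury in humans, e.g. peliosis hepatitis, hepatic veno-occlusive disease or Budd-Chiari syndrome.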
# 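Throughout, for Hepatotoxicity (benign tumour): value is a count of indexed literature references citing a benign tumour confirmed by histopathology.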
# 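Throughout, for Hepatotoxicity (choleostasis): human cholestatic liver injury, shown by histopathology or by peak ALT or AST elevation over alkaline phosphatase ratio below 2, value counts indexed literature reports.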
# 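Throughout, for Hepatotoxicity (chronic liver disease): chronic liver injury confirmed by histopathology or persistently raised serum aminotransferase activity beyond 6 months, value given as the count of indexed literature references.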
# 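Throughout, for Hepatotoxicity (cirrhosis): value is a count of indexed literature references reporting cirrhosis confirmed by histopathology.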
# 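Throughout, for Hepatotoxicity (cytolytic): human cytolytic liver injury, shown by histopathology or by a ratio above 5 of peak ALT or AST elevation to alkaline phosphatase elevation, value counts indexed references.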
# 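Throughout, for Hepatotoxicity (granulomatous hepatitis): value is a count of indexed literature references reporting granulomatous liver disease confirmed by histopathology.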
# 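Throughout, for Hepatotoxicity (malignant tumour): malignant tumour confirmed by histopathology, value gives the count of indexed literature references reporting it.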
# 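Throughout, for Hepatotoxicity (severe hepatitis): human clinical data: severe hepatitis, meaning potentially life-threatening liver failure or clinically observed cases, the value counts how many indexed literature references report it.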
# 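Throughout, for Hepatotoxicity (steatosis): steatosis confirmed by histopathology, value is the count of indexed references.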
Compound,Hepatotoxicity (cirrhosis) [1],Hepatotoxicity (granulomatous hepatitis) [2],Hepatotoxicity (association with vascular disease) [3],Hepatotoxicity (time to onset) [4],Hepatotoxicity (malignant tumour) [6],Hepatotoxicity (steatosis) [7],Hepatotoxicity (moderate) [8],Hepatotoxicity (chronic liver disease) [10],Hepatotoxicity (cytolytic) [11],Hepatotoxicity (mechanism) [13],Hepatotoxicity (acute) [14],Hepatotoxicity (benign tumour) [15],Hepatotoxicity (choleostasis) [16],Hepatotoxicity (comment) [17],Hepatotoxicity (acute) [5] [%],Hepatotoxicity (severe hepatitis) [9],Hepatotoxicity (moderate) [12] [%],also measured
CC1(C)S[C@@H]2[C@H](NC(=O)[C@H](N)c3ccc(O)cc3)C(=O)N2[C@H]1C(=O)O [AMOXICILLIN],0,1,0,3 days - 8 weeks,0,0,7,1,2,Allergic,10,0,7,CHOLESTASE_PROLONGEE CHOLANGITE DUCTOPENIE RC/ERYTHROMYCINE,,,,Hepatotoxicity (acute) ([5]; Liver): 0%; Hepatotoxicity (severe hepatitis) ([9]; Liver): 1; Hepatotoxicity (moderate) ([12]; Liver): 8%
CC(C)c1c(C(=O)Nc2ccccc2)c(-c2ccccc2)c(-c2ccc(F)cc2)n1CC[C@@H](O)C[C@@H](O)CC(=O)O [ATORVASTATIN],1,0,0,6 days - 7 months,0,0,36,1,5,Allergic,10,0,6,AC_ANTI-N/-ML,1.8,1,13.6,
CC[C@H]1OC(=O)[C@H](C)[C@@H](O[C@H]2C[C@@](C)(OC)[C@@H](O)[C@H](C)O2)[C@H](C)[C@@H](O[C@@H]2O[C@H](C)C[C@H](N(C)C)[C@H]2O)[C@](C)(O)C[C@@H](C)CN(C)[C@H](C)[C@@H](O)[C@]1(C)O [AZITHROMYCIN],0,0,0,3 days - 18 days,0,0,53,0,0,Allergic,5,0,4,CHOLANGITE,0,0,40,
CO[C@@]1(NC(=O)Cc2cccs2)C(=O)N2C(C(=O)O)=C(COC(N)=O)CS[C@@H]21 [CEFOXITIN],0,0,0,17 days,0,0,18,0,0,Allergic,1,0,1,CHOLESTASE_PROLONGEE,0,0,25.8,
CC(=O)OCC1=C(C(=O)O)N2C(=O)[C@@H](NC(=O)Cc3cccs3)[C@H]2SC1 [CEPHALOTHIN],0,0,0,1 day - 1 month,0,0,4,0,1,Allergic,4,0,1,RC/NAFCILLINE/OXACILLINE/CEFAPIRINE,0,0,1.5,
CC1=C(C(=O)O)N2C(=O)[C@@H](NC(=O)[C@H](N)C3=CCC=CC3)[C@H]2SC1 [CEPHRADINE],0,0,0,3 weeks,0,0,1,0,0,Allergic,1,0,1,CHOLECYSTITE_A_EOSINOPHILES,0,0,24.3,
CCc1cc2c(s1)N(C)C(=O)CN=C2c1ccccc1Cl [CLOTIAZEPAM],0,0,0,7 months,0,0,0,0,2,Allergic,2,0,0,AC_ANTI-N,0,0,0,
CN1CCC(=C2c3ccccc3C=Cc3ccccc32)CC1 [CYPROHEPTADINE],0,0,0,1 week - 1 month,0,0,0,0,3,Allergic,5,0,3,CHOLESTASE_PROLONGEE CHOLANGITE,0,0,0,
CC(=O)Oc1cccc2c1C(=O)c1c(OC(C)=O)cc(C(=O)O)cc1C2=O [DIACEREIN],0,0,0,10 days,0,0,0,0,1,Allergic,2,0,1,AC_ANTI-N,0,1,0,
Cc1onc(-c2c(Cl)cccc2Cl)c1C(=O)N[C@@H]1C(=O)N2[C@@H]1SC(C)(C)[C@@H]2C(=O)O [DICLOXACILLIN],0,1,0,5 days - 2 months,0,0,2,1,0,Allergic,4,0,3,CHOLESTASE_PROLONGEE,0,0,0,
O=C(O)c1cc(-c2ccc(F)cc2F)ccc1O [DIFLUNISAL],0,,0,1 week - 1 month,0,0,2,0,,,5,0,,AC_ANTI-ML,,,,Hepatotoxicity (granulomatous hepatitis) ([2]; Liver): 1; Hepatotoxicity (acute) ([5]; Liver): 0%; Hepatotoxicity (severe hepatitis) ([9]; Liver): 0; Hepatotoxicity (cytolytic) ([11]; Liver): 2; Hepatotoxicity (moderate) ([12]; Liver): 5%; Hepatotoxicity (mechanism) ([13]; Liver): Allergic; Hepatotoxicity (choleostasis) ([16]; Liver): 4
C[C@H]1c2cccc(O)c2C(=O)C2=C(O)[C@]3(O)C(=O)C(C(N)=O)=C(O)[C@@H](N(C)C)[C@@H]3[C@@H](O)[C@@H]21.O [DOXYCYCLINE],0,0,0,1 day - 12 years,0,2,8,1,1,Allergic,5,0,3,CHOLESTASE_PROLONGEE DUCTOPENIE,0,1,10,
